# Experimental data taken from patent US20130012432A1, “Peptides for Treatment of Obesity” (Novo Nordisk A/S, priority 2010, published 2013).
# Positions of bridges follow the written chain, without caps; N, C: chain ends. Non-standard residues stand in square brackets, D forms with d. Residues, ends and D or L forms follow the SMILES beside them. Groups on a side chain read outwards from the residue. *: point of attachment. Palmitoyl(16-(5-tetrazolyl)) = O=C(CCCCCCCCCCCCCCCc1nnn[nH]1)*; Lys(CH2CO2H)2 = N[C@@H](CCCCN(CC(=O)O)CC(=O)O)C(=O)O; C18 diacid = O=C(O)CCCCCCCCCCCCCCCCC(=O)*; C16 diacid = O=C(O)CCCCCCCCCCCCCCC(=O)*; NTA = O=C(O)CN(CC(=O)O)CC(=O)*; hCys = N[C@@H](CCS)C(=O)O; Dap = NC[C@H](N)C(=O)O; AEEA = NCCOCCOCC(=O)O
# Experiments:
# [1] = molecular target: MC1 receptor (Homo sapiens, UniProt Q01726); test: biochemical
# Protocol: Assay (IV)—Melanocortin Receptor 1 (MC1) Binding Assay
# The MC1 receptor binding assay was performed on BHK cell membranes stably expressing the MC1 receptor. The assay was performed in a total volume of 250 μl: 25 μl of ^125NDP-α-MSH (22 pM in final concentration), 25 μl of test compound/control and 200 μl of cell membrane (25 μg/ml). Test compounds were dissolved in DMSO. Radioactively labeled ligand, membranes and test compounds were diluted in buffer: 25 mM HEPES, pH 7.4, 0.1 mM CaCl2, 1 mM MgSO4, 1 mM EDTA, 0.1% HSA and 0.005% Tween™ 20. Alternatively, HSA may be substituted with ovalbumin. The samples were incubated at 30° C. for 90 min. in Costar round-bottom microtiter plates. Incubation was terminated by filtration on a Packard harvester filtermate. Rapid filtration through Packard Unifilter-96 GF/B filters pre-treated with polyetylenimine (PerkinElmer 6005277). The filters were washed with ice-cold 0.9% NaCl 8-10 times. The plates were air-dried at app. 55° C. for 30 min, and 50 μl Microscint 0 (Packard, cat. No. 6013616) was added to each well. The plates were counted in a Topcounter (1 min/well).
# The data were analysed by non-linear regression analysis of binding curves, using the Windows™ program GraphPad™ Prism (GraphPad Software, USA).
# [2] = physchem
# Protocol: From a stock solution in vehicle, either H2O or 10 mM phosphate, containing 1 mg (as weighed) compound per ml, 8-11 aliquots are withdrawn and pH-adjusted individually with HCl/NaOH, to cover the whole pH range.
# MC1 receptor, sequence (Q01726 whole entry): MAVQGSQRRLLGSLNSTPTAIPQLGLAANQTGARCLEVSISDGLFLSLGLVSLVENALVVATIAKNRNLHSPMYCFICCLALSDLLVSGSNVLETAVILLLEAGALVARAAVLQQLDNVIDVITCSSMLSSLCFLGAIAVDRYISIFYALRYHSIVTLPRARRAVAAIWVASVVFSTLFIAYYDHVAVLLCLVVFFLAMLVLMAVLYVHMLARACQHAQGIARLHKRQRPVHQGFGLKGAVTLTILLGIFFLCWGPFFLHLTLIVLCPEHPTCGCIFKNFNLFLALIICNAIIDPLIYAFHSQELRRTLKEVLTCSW
compound,measurement,setting,value
"CC(=O)N[C@H]1CCSSC[C@@H](C(=O)N2CCC[C@H]2C(=O)N2CCC[C@H]2C(=O)N[C@@H](CCCCN)C(=O)N[C@@H](CC(=O)O)C(=O)N[C@@H](CNC(=O)CN(CC(=O)O)CC(=O)O)C(=O)N[C@@H](CCCCNC(=O)COCCOCCNC(=O)CCCCCCCCCCCCCCCc2nnn[nH]2)C(=O)O)NC(=O)[C@H](Cc2c[nH]c3ccccc23)NC(=O)[C@H](CCCNC(=N)N)NC(=O)[C@@H](Cc2ccccc2)NC(=O)[C@H](Cc2c[nH]cn2)NC1=O [Example 4, Ac-c[homoCys-His-D-Phe-Arg-Trp-Cys]-Pro-Pro-Lys-Asp-Dap(BCMA)-Lys[(2-{2-[16-(tetrazol-5-yl)hexadecanoylamino]ethoxy}ethoxy)acetyl]-OH] (Ac-[hCys]H[dF]RWCPPKD[Dap](NTA)K([AEEA-Palmitoyl(16-(5-tetrazolyl))])-OH; disulfide 1-6)",Ki,[1],> 10 µM
"CC(=O)N[C@H]1CCSSC[C@@H](C(=O)N2CCC[C@H]2C(=O)N2CCC[C@H]2C(=O)N[C@@H](CCCCN)C(=O)N[C@@H](CCC(=O)O)C(=O)N[C@@H](CCCCN(CC(=O)O)CC(=O)O)C(=O)N[C@@H](CCCCNC(=O)COCCOCCNC(=O)CCCCCCCCCCCCCCCc2nnn[nH]2)C(N)=O)NC(=O)[C@H](Cc2c[nH]c3ccccc23)NC(=O)[C@H](CCCNC(=N)N)NC(=O)[C@@H](Cc2ccccc2)NC(=O)[C@H](CO)NC1=O [Example 58, Ac-c[homoCys-Ser-D-Phe-Arg-Trp-Cys]-Pro-Pro-Lys-Glu-Lys(biscarboxymethyl)-Lys[(2-{2-[16-(tetrazol-5-yl)hexadecanoylamino]ethoxy}ethoxy)acetyl]-NH2] (Ac-[hCys]S[dF]RWCPPKE[Lys(CH2CO2H)2]K([AEEA-Palmitoyl(16-(5-tetrazolyl))])-NH2; disulfide 1-6)",solubility,"[2]; pH 3, Solubility Conc.",539 µM
same,solubility,"[2]; pH 3.9, Solubility Conc.",56 µM
same,solubility,"[2]; pH 5.9, Solubility Conc.",8 µM
same,solubility,"[2]; pH 6.2, Solubility Conc.",21 µM
same,solubility,"[2]; pH 6.5, Solubility Conc.",37 µM
same,solubility,"[2]; pH 6.6, Solubility Conc.",30 µM
same,solubility,"[2]; pH 7.5, Solubility Conc.",80 µM
same,solubility,"[2]; pH 7.6, Solubility Conc.",385 µM
same,solubility,"[2]; pH 8.6, Solubility Conc.",250 µM
same,solubility,"[2]; pH 9, Solubility Conc.",365 µM
"CC(=O)N[C@H]1CSSC[C@@H](C(=O)N2CCC[C@H]2C(=O)N2CCC[C@H]2C(=O)N[C@@H](CCCCN)C(=O)N[C@@H](CCC(=O)O)C(=O)N[C@@H](CCCCN(CC(=O)O)CC(=O)O)C(=O)N[C@@H](CCCCNC(=O)COCCOCCNC(=O)CCCCCCCCCCCCCCC(=O)O)C(N)=O)NC(=O)CNC(=O)[C@H](Cc2c[nH]c3ccccc23)NC(=O)[C@H](CCCNC(=N)N)NC(=O)[C@@H](Cc2ccccc2)NC(=O)[C@H](Cc2c[nH]cn2)NC(=O)[C@H](CCC(=O)O)NC1=O [Example 59, Ac-c[Cys-Glu-His-D-Phe-Arg-Trp-Gly-Cys]-Pro-Pro-Lys-Glu-Lys(biscarboxymethyl)-Lys({2-[2-(15-carboxypentadecanoylamino)ethoxy]ethoxy}acetyl)-NH2] (Ac-CEH[dF]RWGCPPKE[Lys(CH2CO2H)2]K([AEEA-C16 diacid])-NH2; disulfide 1-8)",Ki,[1],> 10 µM
"CC(=O)N[C@H]1CCSSC[C@@H](C(=O)N[C@@H](CO)C(=O)N2CCC[C@H]2C(=O)N[C@@H](CCCCN)C(=O)N[C@@H](CCC(=O)O)C(=O)N[C@@H](CCCCN(CC(=O)O)CC(=O)O)C(=O)N[C@@H](CCCCNC(=O)COCCOCCNC(=O)CCCCCCCCCCCCCCC(=O)O)C(N)=O)NC(=O)[C@H](Cc2c[nH]c3ccccc23)NC(=O)[C@H](CCCNC(=N)N)NC(=O)[C@@H](Cc2ccccc2)NC(=O)[C@H](Cc2c[nH]cn2)NC1=O [Example 60, Ac-c[homoCys-His-D-Phe-Arg-Trp-Cys]-Ser-Pro-Lys-Glu-Lys(biscarboxymethyl)-Lys({2-[2-(15-carboxypentadecanoylamino)ethoxy]ethoxy}acetyl)-NH2] (Ac-[hCys]H[dF]RWCSPKE[Lys(CH2CO2H)2]K([AEEA-C16 diacid])-NH2; disulfide 1-6)",solubility,"[2]; pH 4, Solubility Conc.",424 µM
same,solubility,"[2]; pH 5.4, Solubility Conc.",126 µM
same,solubility,"[2]; pH 6, Solubility Conc.",133 µM
same,solubility,"[2]; pH 6.2, Solubility Conc.",171 µM
same,solubility,"[2]; pH 6.4, Solubility Conc.",415 µM
same,solubility,"[2]; pH 6.8, Solubility Conc.",457 µM
same,solubility,"[2]; pH 7.3, Solubility Conc.",459 µM
same,solubility,"[2]; pH 7.6, Solubility Conc.",456 µM
same,solubility,"[2]; pH 7.8, Solubility Conc.",461 µM
same,solubility,"[2]; pH 7.9, Solubility Conc.",450 µM
"CC(=O)N[C@H]1CCSSC[C@@H](C(=O)N2CCC[C@H]2C(=O)N2CCC[C@H]2C(=O)N[C@@H](CCCCN)C(=O)N[C@@H](CC(=O)O)C(=O)N[C@@H](CNC(=O)CN(CC(=O)O)CC(=O)O)C(=O)N[C@@H](CCCCNC(=O)COCCOCCNC(=O)CCCCCCCCCCCCCCCc2nnn[nH]2)C(N)=O)NC(=O)[C@H](Cc2c[nH]c3ccccc23)NC(=O)[C@H](CCCNC(=N)N)NC(=O)[C@@H](Cc2ccccc2)NC(=O)[C@H](Cc2c[nH]cn2)NC1=O [Example 61, Ac-c[homoCys-His-D-Phe-Arg-Trp-Cys]-Pro-Pro-Lys-Asp-Dap(BCMA)-Lys[(2-{2-[16-(tetrazol-5-yl)hexadecanoylamino]ethoxy}ethoxy)acetyl]-NH2] (Ac-[hCys]H[dF]RWCPPKD[Dap](NTA)K([AEEA-Palmitoyl(16-(5-tetrazolyl))])-NH2; disulfide 1-6)",solubility,"[2]; pH 3.3, Solubility Conc.",623 µM
same,solubility,"[2]; pH 4.4, Solubility Conc.",575 µM
same,solubility,"[2]; pH 4.8, Solubility Conc.",584 µM
same,solubility,"[2]; pH 5.3, Solubility Conc.",32 µM
same,solubility,"[2]; pH 6.3, Solubility Conc.",26 µM
same,solubility,"[2]; pH 6.8, Solubility Conc.",46 µM
same,solubility,"[2]; pH 7.1, Solubility Conc.",256 µM
same,solubility,"[2]; pH 7.3, Solubility Conc.",630 µM
same,solubility,"[2]; pH 7.4, Solubility Conc.",713 µM
same,solubility,"[2]; pH 7.7, Solubility Conc.",805 µM
"CC(=O)N[C@H]1CCSSC[C@@H](C(=O)N[C@@H](CO)C(=O)N2CCC[C@H]2C(=O)N[C@@H](Cc2c[nH]cn2)C(=O)N[C@@H](CCC(=O)O)C(=O)N[C@@H](CCCCN(CC(=O)O)CC(=O)O)C(=O)N[C@@H](CCCCNC(=O)COCCOCCNC(=O)CCCCCCCCCCCCCCCCC(=O)O)C(N)=O)NC(=O)[C@H](Cc2c[nH]c3ccccc23)NC(=O)[C@H](CCCNC(=N)N)NC(=O)[C@@H](Cc2ccccc2)NC(=O)[C@H](Cc2c[nH]cn2)NC1=O [Example 62, Ac-c[homoCys-His-D-Phe-Arg-Trp-Cys]-Ser-Pro-His-Glu-Lys(biscarboxymethyl)-Lys({2-[2-(17-carboxyheptadecanoylamino)ethoxy]ethoxy}acetyl)-NH2] (Ac-[hCys]H[dF]RWCSPHE[Lys(CH2CO2H)2]K([AEEA-C18 diacid])-NH2; disulfide 1-6)",solubility,"[2]; pH 3.4, Solubility Conc.",235 µM
same,solubility,"[2]; pH 5, Solubility Conc.",15 µM
same,solubility,"[2]; pH 6.7, Solubility Conc.",41 µM
same,solubility,"[2]; pH 6.9, Solubility Conc.",82 µM
same,solubility,"[2]; pH 7, Solubility Conc.",42 µM
same,solubility,"[2]; pH 7.3, Solubility Conc.",241 µM
same,solubility,"[2]; pH 7.4, Solubility Conc.",243 µM
same,solubility,"[2]; pH 7.7, Solubility Conc.",251 µM
same,solubility,"[2]; pH 7.9, Solubility Conc.",245 µM
same,solubility,"[2]; pH 8, Solubility Conc.",233 µM
"CC(=O)N[C@H]1CCSSC[C@@H](C(=O)N2CCC[C@H]2C(=O)N2CCC[C@H]2C(=O)N[C@@H](CCCCN)C(=O)N[C@@H](CC(=O)O)C(=O)N[C@@H](CCCCNC(=O)CN(CC(=O)O)CC(=O)O)C(=O)N[C@@H](CCCCNC(=O)COCCOCCNC(=O)CCCCCCCCCCCCCCCc2nnn[nH]2)C(N)=O)NC(=O)[C@H](Cc2c[nH]c3ccccc23)NC(=O)[C@H](CCCNC(=N)N)NC(=O)[C@@H](Cc2ccccc2)NC(=O)[C@H](Cc2c[nH]cn2)NC1=O [Example 65, Ac-c[homoCys-His-D-Phe-Arg-Trp-Cys]-Pro-Pro-Lys-Asp-Lys(BCMA)-Lys[(2-{2-[16-(tetrazol-5-yl)hexadecanoylamino]ethoxy}ethoxy)acetyl]-NH2] (Ac-[hCys]H[dF]RWCPPKDK(NTA)K([AEEA-Palmitoyl(16-(5-tetrazolyl))])-NH2; disulfide 1-6)",Ki,[1],> 10 µM
"CC(=O)N[C@H]1CSSC[C@@H](C(=O)N2CCC[C@H]2C(=O)N2CCC[C@H]2C(=O)N[C@@H](CCCCN)C(=O)N[C@@H](CCC(=O)O)C(=O)N[C@@H](CCC(=O)O)C(=O)N[C@@H](CCCCNC(=O)COCCOCCNC(=O)CCCCCCCCCCCCCCC(=O)O)C(N)=O)NC(=O)CNC(=O)[C@H](Cc2c[nH]c3ccccc23)NC(=O)[C@H](CCCNC(=N)N)NC(=O)[C@@H](Cc2ccccc2)NC(=O)[C@H](Cc2c[nH]cn2)NC(=O)[C@H](CCC(=O)O)NC1=O [Example 68, Ac-c[Cys-Glu-His-D-Phe-Arg-Trp-Gly-Cys]-Pro-Pro-Lys-Glu-Glu-Lys({2-[2-(15-carboxypentadecanoylamino)ethoxy]ethoxy}acetyl)-NH2] (Ac-CEH[dF]RWGCPPKEEK([AEEA-C16 diacid])-NH2; disulfide 1-8)",solubility,"[2]; pH 4, Solubility Conc.",167 µM
same,solubility,"[2]; pH 5.1, Solubility Conc.",87 µM
same,solubility,"[2]; pH 5.8, Solubility Conc.",102 µM
same,solubility,"[2]; pH 6.2, Solubility Conc.",164 µM
same,solubility,"[2]; pH 6.9, Solubility Conc.",182 µM
same,solubility,"[2]; pH 7.3, Solubility Conc.",181 µM
same,solubility,"[2]; pH 7.5, Solubility Conc.",184 µM
same,solubility,"[2]; pH 7.9, Solubility Conc.",188 µM
same,solubility,"[2]; pH 8, Solubility Conc.",183 µM
